These results are taken from patent US4515806A, “Furan derivatives and addition salts thereof pharmaceutical compositions and the therapeutical applications thereof” (priority 1982, dated 1985).

Data set [1] relates to gastric juices. Briefly: Ligature of pylorus, intravenous treatment (Table B-1). The class given is in vivo, Male Wistar rats. Particulars: for Volume of gastric juice, percentage decrease relative to control / pH of gastric juice, percentage increase relative to control / Total acidity (titration with 0,1N NaOH), percentage decrease relative to control: 10 mg/kg i.v., 3 h after ligature. The method, then: (§1) The method of […] et al. (J. Pharmac. Exp. […] Male Wistar rats, weighing from 250 to 300 grams were used. […] The rats were anesthetised with ethyl ether, a laparotomy was performed and the pylorus was ligatured. The abdominal incision was then sewn. Treatment was effected: (B-1) intravenously, through the femoral vein. (B-2) intraduodenally, prior to sewing the abdominal incision. Three hours after ligature of the pylorus, the volumen of gastric juices was measured, the pH was determined by a Beckman Century SS-1 pH-meter.

Data set [2] concerns gastric juices. Briefly: Ligature of pylorus, intraduodenal treatment (Table B-2). The class given is in vivo, Male Wistar rats. The method, then: as §1
Another data set can be described thus: Solubility (in words). The class given is physicochemical.
A further data set deals with T1, histamine H2 receptors (Rattus norvegicus, UniProt P25102).
T1 construct: the uterine horn was removed and suspended in a De Jalon solution in an organ bath; from tissue; host or cells: rat uterine horn (rats in estrus, stilbestrol-treated)
T1 sequence (P25102 whole entry): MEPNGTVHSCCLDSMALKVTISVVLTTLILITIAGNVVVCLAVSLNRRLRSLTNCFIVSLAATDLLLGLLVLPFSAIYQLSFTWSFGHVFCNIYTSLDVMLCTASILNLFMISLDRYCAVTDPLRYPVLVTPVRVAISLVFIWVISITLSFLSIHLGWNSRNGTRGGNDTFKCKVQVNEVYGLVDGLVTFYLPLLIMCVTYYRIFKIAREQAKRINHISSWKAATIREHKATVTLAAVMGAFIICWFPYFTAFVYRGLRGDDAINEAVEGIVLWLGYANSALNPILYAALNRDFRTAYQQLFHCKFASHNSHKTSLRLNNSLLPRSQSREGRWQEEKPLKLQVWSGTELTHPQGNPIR
Conditions: for inhibition at 0.0434 µM / inhibition at 0.434 µM / inhibition at 4.34 µM / inhibition at 43.4 µM: rat, read-out: Antagonism (% reduction) of the histamine induced response in KCl contracted rat uterus; for EC50: read-out: effective concentration for producing a 50% antagonism of the histamine response (EC50). As to the method:
Rats in estrus were used and were administered 100 mcg of stilbestrol by intramuscular (i.m.) injection 30 hours before removing the uterus. On the day of the experiment, the uterine horn was removed and suspended in a De Jalon solution in an organ bath, held at 28° C. and aerated with a flow of 95% O2 and 5% CO2. Thereafter a sustained uterine contraction was induced by the addition of a KCl solution to provide a concentration in the organ bath of 4.2 mg/ml, namely, 10 times that of the De Jalon serum. The uterus was caused to relax with the addition of the amount of histamine required to obtain a good response.

Another data set in a line: in vivo. Conditions: mouse, iv.
In another data set the test system is rats. Put plainly: Acute toxicity in rats.
Where [3] appears, read: 1 mg/kg intraduodenal, lot of 4 rats.
[4] abbreviates: 3 mg/kg intraduodenal, 4 or 5 rats.
Setting [5] is: 10 mg/kg intraduodenal, first lot (4 or 5 rats).
Where [6] appears, read: 10 mg/kg intraduodenal, lot of 8 rats.
The mark [7] stands for this setting: 10 mg/kg intraduodenal, second lot (4 or 5 rats).
Setting [8] is: 1 mg/kg intraduodenal, lot of 5 rats.

Each structure is given as a SMILES string. Read-outs that look alike come from different tables or passages of the source.

Consider `CN/C(=N/CCSCc1nc[nH]c1C)NC#N` [Cimetidine, cimetidine], for which the “Volume of gastric juice, percentage decrease relative to control” value amounted to 41.0% in the data set on gastric juices [1] (first lot (2 or 3 rats)); 23.2% in the data set with gastric juices [1] (lot of 5 rats); 7.3% in the data set on gastric juices [1] (lot of 8 rats); 14% in the data set on gastric juices [2] (setting [3]); 23% with gastric juices [2] (setting [4]); 28% with gastric juices [2] (setting [5]). Also, the “Volume of gastric juice, percentage decrease relative to control” value is reported as 6.6% with gastric juices [2] (setting [6]); 51% with gastric juices [2] (setting [7]); 35.4% in the data set with gastric juices [2] (25 mg/kg intraduodenal, 5 rats). Further, the “pH of gastric juice, percentage increase relative to control” value in the data set on gastric juices [1] (first lot (2 or 3 rats)) worked out at 50.4%; in the data set with gastric juices [1] (lot of 8 rats), 64.9%; in the data set on gastric juices [2] (setting [3]), 46%; in the data set with gastric juices [2] (setting [4]), 29%; with gastric juices [2] (setting [5]) it was 50%; in the data set on gastric juices [2] (setting [6]) it was 100%. Also, the “pH of gastric juice, percentage increase relative to control” value in the data set with gastric juices [2] (setting [7]) is reported as 178%; with gastric juices [2] (25 mg/kg intraduodenal, 5 rats), 110%. Further, the “Total acidity (titration with 0,1N NaOH), percentage decrease relative to control” value with gastric juices [1] (lot of 5 rats) stood at 11.7%; in the data set on gastric juices [1] (lot of 8 rats) it was 52.7%; in the data set on gastric juices [2] (setting [3]) it was 48%; with gastric juices [2] (setting [4]), 48%; with gastric juices [2] (setting [5]), 84%; in the data set on gastric juices [2] (setting [6]), 40%. Also, the “Total acidity (titration with 0,1N NaOH), percentage decrease relative to control” value was found to be 82% with gastric juices [2] (setting [7]) and 51.5% in the data set on gastric juices [2] (25 mg/kg intraduodenal, 5 rats).
On to `CN(C)Cc1ccc(CSCCNC(=C[N+](=O)[O-])NCCO)o1` [Example 1, (a), N-[2-[[(5-[(dimethylamino)methyl]-2-furanyl)methyl]thio]ethyl]-N'-(2-hydroxyethyl)-2-nitro-1,1-ethenediamine], for which the solubility entry in the data set “Solubility (in words)” (chloroform) and in “Solubility (in words)” (methanol) was “soluble” throughout.
As a reminder, the LD50 is the dose at which mortality reaches 50%. Read a high LD50 as a less toxic substance. On to `CN(C)Cc1ccc(CSCCNC(=C[N+](=O)[O-])NCCO)o1.Cl` [Example 1, (b), N-[2-[[(5-[(dimethylamino)methyl]-2-furanyl)methyl]thio]ethyl]-N'-(2-hydroxyethyl)-2-nitro-1,1-ethenediamine hydrochloride], for which the “activity compared with ranitidine” value at histamine H2 receptors (rat uterus H2 receptors) is listed as “more active than ranitidine”. At histamine H2 receptors, the inhibition at 0.0434 µM is 0%, the inhibition at 0.434 µM was 22.2%, the inhibition at 4.34 µM amounted to 47.3% and the inhibition at 43.4 µM is 81.8%. At histamine H2 receptors, the EC50 came to 5.5 µM. In addition, in the data set on gastric juices [1] (intravenous), the “activity (reduction in volume, increase in pH of gastric juice)” value is recorded as “very high”; the “activity compared with cimetidine” value is “more active than cimetidine”; the “activity compared with ranitidine” value is “rather higher”. In the data set on gastric juices [2] (intraduodenal), the “activity (reduction in volume, increase in pH of gastric juice)” value is “very high”; the “activity compared with cimetidine” value is “more active than cimetidine”; the “activity compared with ranitidine” value was “practically the same activity”. Further, the solubility entry in the data set “Solubility (in words)” (methanol) is “soluble”. In “Solubility (in words)” (water), the solubility result is “soluble”. In the data set on mice, the acute toxicity result is listed as “low”. In the data set “in vivo”, the LD50 worked out at 200 mg/kg. Moreover, the acute toxicity entry in the data set on rats is recorded as “low”.
As to `O=[N+]([O-])C=C(NCCO)NCCO` [Example 2, N,N'-bis(2-hydroxyethyl)-2-nitro-1,1-ethenediamine], the solubility entry in the data set “Solubility (in words)” (ethanol) is listed as “slightly soluble”; in “Solubility (in words)” (methanol) it was “slightly soluble”; in the data set “Solubility (in words)” (water) it was “soluble”.
Turning to `CNC(=C[N+](=O)[O-])NCCSCc1ccc(CN(C)C)o1` [Ranitidine, ranitidine], on histamine H2 receptors (rat uterus, KCl contracted), the EC50 amounted to 8.25 µM. In addition, the inhibition at 0.0434 µM at histamine H2 receptors was found to be 0%. Also, the inhibition at 0.434 µM at histamine H2 receptors is 20%. For the same molecule, the inhibition at 4.34 µM on histamine H2 receptors worked out at 42.2%. At histamine H2 receptors, the inhibition at 43.4 µM was 73.8%. The “Volume of gastric juice, percentage decrease relative to control” value with gastric juices [1] (first lot (2 or 3 rats)) was 68.1%; in the data set on gastric juices [1] (lot of 5 rats), 61.4%; in the data set with gastric juices [1] (lot of 8 rats), 21%; in the data set with gastric juices [2] (setting [3]), 46.2%; with gastric juices [2] (setting [4]), 5%; in the data set on gastric juices [2] (setting [5]) it was 30%. Also, the “Volume of gastric juice, percentage decrease relative to control” value in the data set with gastric juices [2] (setting [6]) amounted to 12%; in the data set with gastric juices [2] (setting [7]), 58%; with gastric juices [2] (25 mg/kg intraduodenal, 5 rats) it was 55%. Besides, the “pH of gastric juice, percentage increase relative to control” value in the data set with gastric juices [1] (first lot (2 or 3 rats)) is on record as 200.8%; with gastric juices [1] (lot of 5 rats), 88.5%; in the data set with gastric juices [1] (lot of 8 rats) it was 104.2%; in the data set with gastric juices [2] (setting [3]), 17%; in the data set with gastric juices [2] (setting [8]) it was 60%; in the data set on gastric juices [2] (setting [4]), 46%. Moreover, the “pH of gastric juice, percentage increase relative to control” value in the data set with gastric juices [2] (setting [5]) is listed as 95%; in the data set on gastric juices [2] (setting [6]), 97.4%; in the data set with gastric juices [2] (setting [7]), 202%; in the data set with gastric juices [2] (25 mg/kg intraduodenal, 5 rats), 210%. The “Total acidity (titration with 0,1N NaOH), percentage decrease relative to control” value is 81.8% with gastric juices [1] (lot of 5 rats); 72.7% in the data set with gastric juices [1] (lot of 8 rats); 38% in the data set with gastric juices [2] (setting [3]); 18% in the data set with gastric juices [2] (setting [8]); 47% in the data set with gastric juices [2] (setting [4]); 66% in the data set with gastric juices [2] (setting [5]). The “Total acidity (titration with 0,1N NaOH), percentage decrease relative to control” value in the data set on gastric juices [2] (setting [6]) was found to be 50%; in the data set on gastric juices [2] (setting [7]), 75%; in the data set with gastric juices [2] (25 mg/kg intraduodenal, 5 rats), 83%. For the same molecule, the “Volume of gastric juice, percentage increase relative to control” value in the data set on gastric juices [2] (setting [8]) came to 6%.
As to `NCCc1c[nH]cn1` [histamine], the inhibition at 54.3 µM at histamine H2 receptors (read-out: inhibition of the contraction caused by KCl) amounted to 74.5%.
